# Source: publication PMC6179248, “Peanut-specific T cell responses in patients with different clinical reactivity” (PLoS ONE, 2018)
# Columns and labels:
# [1] = system: PBMC from peanut allergic and non-allergic donors (IFNγ production); experiment: IFNγ ELISPOT with individual peptides after 14-day in vitro expansion (epitope mapping); format: cell-based, human; settings: SFC per 10^6 PBMC, individual peptide 10 μg/ml, 24 h, after 14-day culture; for IFNg Average SFC (allergics): allergic donors; for IFNg Average SFC (controls): non-allergic controls
# Method: (§1) For in vitro expansions, PBMCs were thawed and cultured in RPMI 1640 (Omega Scientific, Tarzana, CA) supplemented with 5% human AB serum (Gemini Bio-Products, West Sacramento, CA) at a density of 2 × 10^6 cells per mL in 24-well plates (Corning, San Diego, CA) and stimulated with peanut extract (10 μg/ml) or peptide pools at 5 μg/mL. Cells were kept at 37°C, 5% CO2, and additional IL-2 (10 U/mL; ThermoFisher, San Diego, CA) was added every 3 days after initial antigenic stimulation. On day 14, cells were harvested and reactivity against peanut extract (10 μg/ml), peanut specific peptide pools (5 μg/ml) and individual peptides (10 μg/ml) was assessed. The production of IL-5 and IFNγ post-stimulation with peanut extract was analyzed in dual ELISPOT assays. Flat-bottom 96-well nitrocellulose plates (Millipore, Bedford, MA) were prepared according to the manufacturer’s instructions and coated with either 10 μg/ml of both anti-human IL-5 (clone TRFK5) and anti-human IFNγ (clone 1-D1K) or anti-human IL-10 (clone 9D7) and anti-human IL-17 (clone MT44.6) (Mabtech, Cincinnati, OH). PBMC were then incubated at a density of 1 × 10^5/well either with peptide pools (5 μg/ml) or individual peptides (10 μg/ml), peanut extract (10 μg/ml), PHA (10 μg/ml), or medium containing 0.25% DMSO (corresponding to the highest percentage of DMSO in the pools/peptides condition) as a control. After 24 h, cells were removed, and plates were incubated with a cocktail containing either biotinylated anti-human IL-5 (1:50 dilution) (clone 5A10) and horseradish peroxidase (HRP)-conjugated anti-human IFNγ (1:200 dilution) (clone 7-B6-1) or biotinylated anti-human IL-17 (1:200 dilution) (clone MT504) anti-human alkaline phosphatase (AP)-conjugated IL-10 (1:200 dilution) (clone 12G8) (Mabtech, Cincinnati, OH) at 37°C. After 2 h, spots corresponding to the biotinylated IL-5 Ab were developed by incubation with Alkaline-phosphatase-Complex (Vector Laboratories, Burlingame, CA) and then visualized by applying the Vector Blue Alkaline Phosphatase Substrate Kit III (Vector Laboratories, Burlingame, CA) according to the manufacturer’s instructions. Spots corresponding to the HRP-conjugated anti-human IFNγ Ab were visualized by incubation with 3-amino-9-ethylcarvazole solution (Sigma-Aldrich, St. Louis, MO). Spots were counted by computer-assisted image analysis (KS-ELISPOT reader, Zeiss, Munich). Each assay was performed in triplicate. The level of statistical significance was determined with a Student t test using the mean of triplicate values of the response against relevant pools or individual peptides versus the response against the DMSO control. Criteria for response positivity were 20 spot-forming cells (SFCs)/10^6 PBMC, p ≤ 0.05, and a stimulation index (SI) ≥ 2. SFCs are measured per 10^5 PBMC, subsequently readings are background subtracted and multiplied by 10 to be expressed as SFC per million PBMC. T cell epitope mapping was performed to determine epitopes from the major peanut allergens Ara h 1, 2 and 3, recognized by peanut allergic (n = 11) and non-allergic (n = 10) donors. As these studies were performed with samples obtained from pediatric patients, available blood sample volumes were limiting. To overcome this limitation, small pools of predicted peptides matched to the HLA molecules expressed in each donor were tested. For each donor, class II binding affinity predictions were performed using algorithms available through the IEDB (www.iedb.org)[18], to identify the top 6 predicted binders for each of the alleles expressed at the four HLA class II loci (DRB1, DRB3/4/5, DQB1, and DPB1). Accordingly, the screening load for each donor was reduced from 400 peptides to a maximum of 48 peptides (6 peptides x ≤8 class II molecules, less for homozygous donors). The six top predicted peptides for each allele were used to generate allele-specific pools, which were in turn used to expand peanut-specific cells in vitro. […]
# [2] = system: PBMC from peanut allergic and non-allergic donors (IL-5 production); experiment: IL-5 ELISPOT with individual peptides after 14-day in vitro expansion (epitope mapping); format: cell-based, human; settings: SFC per 10^6 PBMC, individual peptide 10 μg/ml, 24 h, after 14-day culture; for IL-5 Average SFC (allergics): allergic donors; for IL-5 Average SFC (controls): non-allergic controls
# Method: as §1
Sequence,IFNg Average SFC (allergics) [1] [SFC],IFNg Average SFC (controls) [1] [SFC],IL-5 Average SFC (allergics) [2] [SFC],IL-5 Average SFC (controls) [2] [SFC]
"PHFNSKAMVIVVVNK [Ara h 1 15-mer, position 446]",0,0,113,0
"NPINLREGEPDLSNN [Ara h 1 15-mer, position 396]",,240,,457
"QEFLQHAFQVDRQTV [Ara h 3 15-mer, position 246]",0,390,57,2210
"QRSRQFQNLQNHRIV [Ara h 1 15-mer, position 201]",0,102,0,216
"NTNAHSIIYALRGRA [Ara h 3 15-mer, position 416; P19 pool member]",0,77,32,163
"QEFLRYQQQQGSRPH [Ara h 3 15-mer, position 206]",13,61,0,144
"QSDNFEYVAFKTDSR [Ara h 3 15-mer, position 466; P19 pool member]",0,373,164,123
"DADNILVIQQGQATV [Ara h 1 15-mer, position 231]",0,37,25,0
"FCVLVLGASSVTFRQ [Ara h 3 15-mer, position 11]",22,0,0,28
"EQENEGSNIFSGFAQ [Ara h 3 15-mer, position 232]",25,0,0,17
"SGFAQEFLQHAFQVD [Ara h 3 15-mer, position 242]",0,88,124,97
"ILVAPALFLLAAHAS [Ara h 2 15-mer, position 6]",0,108,0,40
"QEFECAGVALSRLVL [Ara h 3 15-mer, position 61]",,0,,138
"QGRGYFGLIFPGCPS [Ara h 3 15-mer, position 96]",0,0,0,43
"GSRPHYRQISPRVRG [Ara h 3 15-mer, position 216]",0,57,203,287
"GRIRVLQRFDQRSKQ [Ara h 1 15-mer, position 191; P19 pool member]",49,197,253,66
"VTVRGGLRILSPDRK [Ara h 3 15-mer, position 301]",19,93,196,44

Sequence,IFNg Average SFC (allergics) [1] [SFC],IFNg Average SFC (controls) [1] [SFC],IL-5 Average SFC (allergics) [2] [SFC],IL-5 Average SFC (controls) [2] [SFC]
"FVPHYTLNAHTIVVA [Ara h 3 15-mer, position 386]",117,94,163,70
"NELNLLILRWLGLSA [Ara h 3 15-mer, position 386]",0,0,0,607
"SPLMLLLGILVLASV [Ara h 1 15-mer, position 6]",0,0,0,30
"TLNAHTIVVALNGRA [Ara h 3 15-mer, position 391]",16,61,97,64
"QRSKQFQNLQNHRIV [Ara h 1 15-mer, position 201; P19 pool member]",0,65,0,171
"ALFLLAAHASARQQW [Ara h 2 15-mer, position 11]",0,545,11,270
"SSELHLLGFGINAEN [Ara h 1 15-mer, position 523]",0,0,492,0
"RCTKLEYDPRCVYDT [Ara h 1 15-mer, position 61]",0,820,195,467
"FCFLVLGASSISFRQ [Ara h 3 15-mer, position 11]",,0,,25
"GRIRVLQRFDQRSRQ [Ara h 1 15-mer, position 191; P19 pool member]",19,168,227,105
"AFQVDDRQIVQNLRG [Ara h 3 15-mer, position 276]",0,0,85,10
"RLKEGDVFIMPAAHP [Ara h 1 15-mer, position 503]",,83,,120
"LILRWLGLSAEYGNL [Ara h 3 15-mer, position 391]",32,0,53,1880
"QEFLRYQQQSRQSRR [Ara h 3 15-mer, position 206; P19 pool member]",15,72,295,47
"CMCEALQQIMENQSD [Ara h 2 15-mer, position 116]",,0,,59
"KAMVIVVINKGTGNL [Ara h 1 15-mer, position 451]",,43,,53
"FQNLQNHRIVQIEAR [Ara h 1 15-mer, position 206]",13,0,64,0
